The source of these data is ChEMBL document CHEMBL1201862, “PubChem BioAssay data set” (2004).

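Dose response: 5 concentrations. Exposure: 48 h. Format: 96-well plates. Endpoint: linear interpolation; highest concentration if not reached. GI50 = concentration required for 50% inhibition of growth.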 Activity calls are given as the source filed them. Cut-off read from the data, not from the text of the source: active = GI50 up to about 1.1 µM and inactive = higher.

Experiment in all cases: DTP human tumour cell line panel, 48 h
In test [1] the test system is SW-620.
For test [2], the system named is MDA-MB-231.
For test [3], the system named is PC-3.
Test [4] concerns SK-MEL-2.
Test [5] has as its system A549.
Test [6] concerns SF-268.
Test [7] deals with SNB-75.
Test [8] has as its system KM12.
The subject of test [9] is SK-OV-3.
For test [10], the system named is SK-MEL-5.
Test [11] relates to COLO 205.
Test [12] deals with MDA-N.
Test [13] concerns NCI-H522.
Test [14] deals with Hs-578T.
Test [15] relates to RPMI-8226.
The subject of test [16] is UACC-257.
The subject of test [17] is ACHN.
The test system of test [18] is T47D.
Test [19] has as its system MDA-MB-435.
Test [20] concerns HCT-15.

Turning to `O=C1N/C(=N/N=C\c2ccccc2)N/C1=C/c1ccccc1`, the GI50 was 38.5 µM (inactive) in [1]; 47 µM (inactive) in test [2]; 24.9 µM (inactive) in test [3]; 27.6 µM (inactive) in test [4]; 35.7 µM (inactive) in test [5]; 27.3 µM (inactive) in test [6]. Besides, the GI50 is 25.6 µM (inactive) in [7]; 22.5 µM (inactive) in test [8]; 37.7 µM (inactive) in test [9]; 35.4 µM (inactive) in [10]; 68.5 µM (inactive) in test [11]; 30.6 µM (inactive) in [12]. Also, the GI50 in test [13] was 23.1 µM (inactive); in test [14] it was 27.3 µM (inactive); in [15], 26.6 µM (inactive); in test [16], 53.6 µM (inactive); in [17], 13.2 µM (inactive); in test [18] it was 30.3 µM (inactive). For the same compound, the GI50 in [19] was 17.1 µM (inactive); in test [20] it was 32.9 µM.

In the case of `Cc1cccc(O)c1-c1nnc(CCCCCCCCc2nnc(-c3c(C)cccc3O)n2N)n1N`, the GI50 in test [1] is > 100 µM (inactive); in test [2] it was > 62.2 µM (inactive); in [3] it was > 100 µM (inactive); in test [4], 38.3 µM (inactive); in test [5], > 46.5 µM (inactive); in test [6] it was 51.3 µM (inactive). For the same compound, the GI50 is 25 µM (inactive) in [7]; 95.1 µM (inactive) in test [8]; > 60.5 µM (inactive) in [9]; > 100 µM (inactive) in test [10]; > 31.6 µM (inactive) in [11]; > 64.6 µM (inactive) in test [12]. Also, the GI50 in [13] was 1.07 µM (active); in test [14], 39.9 µM (inactive); in test [15] it was > 100 µM (inactive); in test [16] it was > 100 µM (inactive); in test [17], > 85.7 µM (inactive); in test [18], > 100 µM (inactive). The figures for the GI50 in test [19] and in test [20] were > 69.5 µM (inactive) and more than 100 µM, respectively.

Turning to `O=C(O)C1CCc2ccc3ccccc3c2C1c1cccc2ccccc12` (stereo not given), the GI50 in test [1] is 28.2 µM (inactive); in test [2], 30.2 µM (inactive); in test [3], 19.3 µM (inactive); in [4], 18.2 µM (inactive); in test [5] it was 16.5 µM (inactive); in test [6] it was 27.9 µM (inactive). Also, the GI50 in test [7] was 22.9 µM (inactive); in test [8] it was 21.9 µM (inactive); in test [9], 36.1 µM (inactive); in [10] it was 16.5 µM (inactive); in test [11], 25.9 µM (inactive); in test [12], 22.1 µM (inactive). In addition, the GI50 was 21.4 µM (inactive) in test [13]; 33.2 µM (inactive) in [14]; 27.9 µM (inactive) in test [15]; 25.9 µM (inactive) in test [16]; 29.6 µM (inactive) in [17]; 43.9 µM (inactive) in test [18]. Moreover, the GI50 is 48.6 µM (inactive) in [19] and 19.4 µM in [20].

Turning to `O=C(O)C(Br)C(Br)c1ccccc1[N+](=O)[O-]` (stereo not given), the GI50 in test [1], in test [2], in test [3], in test [4], in test [5] and in [6] was > 100 µM (inactive) throughout. In addition, the GI50 in test [7], in test [8], in test [9], in test [10], in [11] and in test [12] was > 100 µM (inactive) each time. In addition, the GI50 is 16.3 µM (inactive) in test [13]; > 100 µM (inactive) in [14]; > 100 µM (inactive) in test [15]; > 100 µM (inactive) in [16]; > 100 µM (inactive) in [17]; > 100 µM (inactive) in [18]. The GI50 in test [19] is > 100 µM (inactive); in test [20], more than 100 µM.

Turning to `CCC1=C(C=O)c2cc3[nH]c(cc4nc(c5c6[nH]c(cc1n2)c(C)c6C(=O)C5C(=O)OC)C(CCC(=O)OC)C4C)c(C)c3CC` (stereo not given), the GI50 in test [1], in test [2], in test [3], in test [4], in test [5] and in test [6] was > 100 µM (inactive) throughout. For the same compound, the GI50 in [7], in [8], in test [9], in [10], in test [11] and in test [12] was > 100 µM (inactive) throughout. Also, the GI50 was > 100 µM (inactive) in test [13]; 88.1 µM (inactive) in test [14]; > 100 µM (inactive) in test [15]; > 100 µM (inactive) in test [16]; > 100 µM (inactive) in test [17]; > 100 µM (inactive) in test [18]. Also, the GI50 in test [19] was > 100 µM (inactive); in [20] it was more than 100 µM.

Consider `COc1ccc(-c2cn3c(nc4ccccc43)c(C)n2)cc1`, for which the GI50 in [1] is > 100 µM (inactive); in test [2] it was > 100 µM (inactive); in test [3], 72.3 µM (inactive); in test [4] it was 44.9 µM (inactive); in test [5], 86.5 µM (inactive); in test [6], > 51.5 µM (inactive). Besides, the GI50 in test [7] is > 50.8 µM (inactive); in [8], > 100 µM (inactive); in [9], 10.2 µM (inactive); in test [10], 21.5 µM (inactive); in [11], > 100 µM (inactive); in [12] it was > 100 µM (inactive). For the same compound, the GI50 in [13] was 39.1 µM (inactive); in [14], 41.6 µM (inactive); in [15], > 75.9 µM (inactive); in test [16] it was > 61.9 µM (inactive); in test [17], 45.2 µM (inactive); in test [18], 8.3 µM (inactive). Further, the GI50 in [19] is > 96.2 µM (inactive); in [20], more than 93.1 µM.

Take `COc1ccc(NC(=O)/C(=N/NC(N)=S)C2C(=O)NC(=S)NC2=O)c(OC)c1`: the GI50 in [1], in [2], in [3], in [4], in [5] and in test [6] was > 100 µM (inactive) in each case. Also, the GI50 in [7], in test [8], in test [9], in test [10], in test [11] and in [12] was > 100 µM (inactive) throughout. The GI50 in test [13], in test [14], in test [15], in test [16], in test [17] and in test [18] was > 100 µM (inactive) each time. Also, the GI50 in test [19] was > 100 µM (inactive); in test [20] it was more than 100 µM.
